Measured values as given in patent US4562275A, “Antitumor platinum complexes” (priority 1984, dated 1985).
Several values for one entry are separate records, joined by “and”; a condition that tells them apart may be missing. Equal values may be shown once.

How the values were obtained:
C26 carcinoma = experiment: Antitumor activity vs ip C26 (colon 26) carcinoma in mice; format: in vivo, mouse; design: O.D.: unit not given here; conditions: for O.D.: ip C26 (2×; 4×); for Max. % T/C: ip C26 (2×; 4×): q3d × 2 or qd 1-4, ip, dying mice only
Source text: (§1) Results of antitumor testing against the transplantable mouse tumors L1210 leukemia, cisplatin-resistant L1210 leukemia, B16 melanoma, Madison 109 lung carcinoma and colon 26 carcinoma are shown below in Tables 1 and 2.
(§2) The methods used to evaluate the platinum complexes for antitumor activity and toxicity in animals are summarized below. These methods have been published elsewhere in more detail (Rose, et al. Cancer Treat. Rep. 66: 135, 1982; Florczyk, et al, Cancer Treat. Rep. 66: 187, 1982).
(§3) The parent line of L1210 leukemia (L1210) was maintained in DBA/2 mice by ip transplantation of 10^5 cells at weekly intervals. […] B16 malenoma (B16) was maintained by sc transplant in C57BL/6 mice every two weeks. Madison 109 lung carcinoma (M109) and colon 26 carcinoma (C26) were maintained by sc transplant in BALB/c mice every two weeks.
(§4) The level and route of tumor inoculum, host, group size, and drug treatment schedule and route for each tumor type are summarized below in Table 6. Each complex was evaluated initially against L1210 at 4 dose levels per schedule selected on the basis of lethality data provided by the Wadley Institute. In subsequent experiments with the other tumors the complexes were evaluated at a minimum of 3 dose levels selected on the basis of maximum tolerated levels in the L1210 experiments. Cisplatin-treated groups and a saline-treated (or untreated) tumor control group were included in each experiment.
(§5) The L1210 experiments were terminated on Day 30 whereas the B16, C26 and M109 experiments were terminated on Day 60 (some C26 experiments were terminated on Day 75). Mice alive at the termination day were autopsied and considered cured if no tumor was visible. […] A complex was considered active if it produced a % T/C value ≥125.
8 q3d^b × 2 or qd 1-4, ip

L1210 leukemia = experiment: Antitumor activity vs transplantable L1210 leukemia (ip) in mice; format: in vivo, mouse; conditions: for Max % T/C: dying mice only; for OD (optimum dose): optimum dose from the L1210 test
Source text: The antitumor activities of the complexes provided by the present invention have been determined against L-1210 leukemia in the mouse and, for certain of the complexes, against other mouse tumor systems.
as §1
In Table 1 are shown the maximum % T/C values obtained for each platinum compound versus L1210 leukemia using both single and qd 1→5 dosing.
as §2, §3, §4, §5

[1] = Solubility stated in the preparation examples
BDF1 mice [2] = experiment: Deaths (D.14) in the BUN test in BDF1 mice; format: in vivo, mouse
Solubility (Table 3) = conditions: medium not given
[3] = system: L1210/CDDP (cisplatin resistant line of L1210 leukemia); experiment: Antitumor activity vs cisplatin-resistant L1210 leukemia (L1210/CDDP) in mice; format: in vivo, mouse
Source text: Results of antitumor testing against the transplantable mouse tumors L1210 leukemia, cisplatin-resistant L1210 leukemia, B16 melanoma, Madison 109 lung carcinoma and colon 26 carcinoma are shown below in Tables 1 and 2. […]
as §2, §3, §4, §5

M109 carcinoma = experiment: Antitumor activity vs ip M109 (Madison 109 lung) carcinoma in mice; format: in vivo, mouse; design: O.D.: unit not given here; conditions: for O.D.: ip M109 (2×; 4×); for Max. % T/C: ip M109 (2×; 4×): q3d × 2 or qd 1-4, ip, dying mice only
Source text: as §1, §2, §3, §4, §5
8 q3d^a × 2 or qd 1-4, ip

BDF1 mice [4] = experiment: Nephrotoxicity: effect on blood urea nitrogen (BUN) in BDF1 mice; conditions: for BUN↑, Mouse: effect relative to cisplatin
Description: The other compounds were in such short supply that they were tested for effects on BUN values using the optimum dose (O.D.) from the L1210 test for dose selection.
The toxicity studies were done in male BDF1 mice (25-29 gm) and castrated male Fitch ferrets (1-1.5 kg).
The complexes that were active against L1210 were evaluated for nephrotoxicity by determining their effects on blood urea nitrogen (BUN) levels in mice. Groups of 40-50 mice/experiment were bled from the retro-orbital plexus and individual BUN values determined by a modified urease method using a Centrifichem System 400. The test complex, or saline for controls, was given at several dose levels (5-10 mice/dose) in single ip injections. The highest dose of the complex usually corresponded to its LD50 value or 1.5 times its optimal single dose in the L1210 experiment. At least two lower doses were included to evaluate dose-related effects. The BUN values were measured 4 and 7 days after dosing. BUN values ≥30 mg% were considered indicative of drug-induced nephrotoxicity.

B16 melanoma [5] = experiment: Antitumor activity vs ip B16 melanoma in mice; format: in vivo, mouse; design: O.D.: unit not given here; conditions: for O.D.: ip B16 (3×; 9×); for Max. % T/C: ip B16 (3×; 9×): q4d × 3 or qd 1-9, ip, dying mice only; for Ratio of Max. % T/C Complex/cDDP: ip B16, relative to concomitant cisplatin
Source text: as §2, §3
The level and route of tumor inoculum, host, group size, and drug treatment schedule and route for each tumor type are summarized below in Table 6. Each complex was evaluated initially against L1210 at 4 dose levels per schedule selected on the basis of lethality data provided by the Wadley Institute.
as §5

BDF1 mice [6] = experiment: Single-dose ip LD50 in BDF1 mice; format: in vivo, mouse; conditions: 30 days observation
Description: Single-dose ip LD50 values were determined in BDF1 mice for the indicated complexes.

B16 melanoma [7] = experiment: Antitumor activity vs B16 melanoma, sc tumor implant with iv drug dosing; format: in vivo, mouse
Source text: ^b Sc tumor implant with iv drug dosing.
as §3, §4, §5

[8] = L1210, single dose Day 1, ip, (a), (b) determinations
[9] = L1210, single dose Day 1, ip, dose giving the Max % T/C, same order
[10] = L1210, Day 1, in intralipid plus ethanol

| Compound | O.D. (C26 carcinoma) | Max. % T/C (C26 carcinoma) [%] | O.D. (optimal dose) (L1210 leukemia; L1210, QD 1 → 5, ip) [mg/kg/inj] | Max % T/C (L1210 leukemia; L1210, QD 1 → 5, ip) [%] | Max % T/C (L1210 leukemia; [8]) | O.D. (optimal dose) (L1210 leukemia; [9]) | OD (optimum dose) (L1210 leukemia) [mg/kg/ip] | Solubility in water [1] | Solubility (Solubility (Table 3)) [µg/mL] | O.D. (M109 carcinoma) | Max. % T/C (M109 carcinoma) | BUN↑, Mouse (BDF1 mice [4]) | O.D. (B16 melanoma [5]) | Max. % T/C (B16 melanoma [5]) [%] | Ratio of Max. % T/C Complex/cDDP (B16 melanoma [5]) | LD50 (BDF1 mice [6]) [mg/kg/ip] | further results |
| --- | --- | --- | --- | --- | --- | --- | --- | --- | --- | --- | --- | --- | --- | --- | --- | --- | --- |
| hydroxymethylphosphonato trans(-)-1,2-diaminocyclohexane platinum(II) [Example 12] | 24 | 125 | 3 | 293 | 221% and 275% | 24 mg/kg/inj and 21 mg/kg/inj | 24 | soluble | 3000 | 18 | 135% | 0 | 4 | 229 | 1.08 | 79 | Ratio of Max. % T/C Complex/cDDP (C26 carcinoma; ip C26, relative to concomitant cisplatin): .87; Solubility in methanol ([1]; methanol): soluble; Deaths D.14 (BDF1 mice [2]; 44 mg/kg ip): 6/10; Deaths D.14 (BDF1 mice [2]; 59 mg/kg ip): 9/10; Deaths D.14 (BDF1 mice [2]; 79 mg/kg ip): 10/10; Cures/total ([3]; Day 1): 2/6; O.D. (optimal dose) ([3]; Day 1): 14 mg/kg/inj; Max % T/C ([3]; Day 1, dying mice only): 340%; Ratio of Max. % T/C Complex/cDDP (M109 carcinoma; ip M109, relative to concomitant cisplatin): .95; Incidence of BUN > 30 mg % (BDF1 mice [4]; 44 mg/kg ip): 1/6; Incidence of BUN > 30 mg % (BDF1 mice [4]; 59 mg/kg ip): 0/4 |
| NCC1(N)CCCCCCC1.O=C([O-])CP(=O)([O-])[O-].[H+].[Pt+2] [Example 15, phosphonoacetato 1-aminomethylcyclooctylamine platinum(II)] |  |  | 10 | 193 | 236% | 80 mg/kg/inj | 80 | very water-soluble | 7000 |  |  | < | 3 | 147 | .77 | 137 | Deaths D.14 (BDF1 mice [2]; 77 mg/kg ip): 0/10; Deaths D.14 (BDF1 mice [2]; 103 mg/kg ip): 3/10; Deaths D.14 (BDF1 mice [2]; 137 mg/kg ip): 9/10; Incidence of BUN > 30 mg % (BDF1 mice [4]; 77 mg/kg ip): 0/10; Incidence of BUN > 30 mg % (BDF1 mice [4]; 103 mg/kg ip): 2/10; Incidence of BUN > 30 mg % (BDF1 mice [4]; 137 mg/kg ip): 7/10 |
| N[C@@H]1CCCC[C@H]1N.O=C([O-])C(F)(F)C(F)(F)C(F)(F)F.O=C([O-])C(F)(F)C(F)(F)C(F)(F)F.[Pt+2] (relative stereo) [Example 3, bis-heptafluorobutyrato trans(-)-1,2-diaminocyclohexane platinum(II)] | 16 | 119 | 3 | 186 | 157% | 48 mg/kg/inj | 24 |  |  | 12 and 8 | 118% and 103% | 0 | 1 | 182 |  |  | O.D. (optimal dose) (L1210 leukemia; [10]): 24 mg/kg/inj and 18 mg/kg/inj; Max % T/C (L1210 leukemia; [10]): 214% and 200%; Cures/total (L1210 leukemia; L1210, QD 1 → 5, ip): 2/6; Deaths D.14 (BDF1 mice [2]; 24 mg/kg ip): 2/5; Deaths D.14 (BDF1 mice [2]; 36 mg/kg ip): 3/5; O.D. (optimal dose) ([3]; Day 1, in intralipid plus ethanol): 12 mg/kg/inj; Max % T/C ([3]; Day 1, in intralipid plus ethanol, dying mice only): 195%; Incidence of BUN > 30 mg % (BDF1 mice [4]; 24 mg/kg ip): 0/3; Incidence of BUN > 30 mg % (BDF1 mice [4]; 36 mg/kg ip): 0/2; O.D. (B16 melanoma [7]): 4; Max. % T/C (B16 melanoma [7]; dying mice only): 164% |
